Laboratory results: the NIST ThermoML archive (doi:10.1021/je300280s)
“And” between values parts separate entries of the source, which are not always exact repeats. Equal values may be shown once. Numbers after ± are expanded uncertainties.

Tests used:
[1] = excess molar enthalpy (molar enthalpy of mixing); xn = mol fraction of the nth substance listed; conditions: 101.3 kPa, Liquid, Flow calorimetry
[2] = xn = mol fraction of the nth substance listed; conditions: 101.3 kPa, Liquid, Vibrating tube method

CC(=O)C(C)=O [2,3-butanedione] + O
Conditions | excess molar enthalpy, [1] | mass density, [2]
288.15 K, x1 = 0.002059 | – | 1001.04 ± 0.033 kg/m3
288.15 K, x1 = 0.002062 | – | 1001.04 ± 0.033 kg/m3
288.15 K, x1 = 0.003086 | – | 1002 ± 0.033 kg/m3
288.15 K, x1 = 0.003089 | – | 1002 ± 0.033 kg/m3
288.15 K, x1 = 0.004111 | – | 1002.95 ± 0.034 kg/m3
288.15 K, x1 = 0.004113 | – | 1002.96 ± 0.034 kg/m3
288.15 K, x1 = 0.005132 | – | 1003.91 ± 0.034 kg/m3
288.15 K, x1 = 0.005135 | – | 1003.91 ± 0.034 kg/m3
288.15 K, x1 = 0.006153 | – | 1004.87 ± 0.035 kg/m3
288.15 K, x1 = 0.006157 | – | 1004.87 ± 0.035 kg/m3
288.18 K, x1 = 0.00103 | -0.00487 ± 0.000225 kcal/mol | –
288.18 K, x1 = 0.001032 | -0.00488 ± 0.000225 kcal/mol | –
288.18 K, x1 = 0.002059 | -0.00976 ± 0.000311 kcal/mol | –
288.18 K, x1 = 0.002062 | -0.00976 ± 0.000311 kcal/mol | –
288.18 K, x1 = 0.003086 | -0.0146 ± 0.000406 kcal/mol | –
288.18 K, x1 = 0.003089 | -0.0146 ± 0.000406 kcal/mol | –
288.18 K, x1 = 0.004111 | -0.0193 ± 0.000502 kcal/mol | –
288.18 K, x1 = 0.004113 | -0.0194 ± 0.000502 kcal/mol | –
288.18 K, x1 = 0.005132 | -0.0241 ± 0.000598 kcal/mol | –
288.18 K, x1 = 0.005135 | -0.0241 ± 0.000598 kcal/mol | –
288.18 K, x1 = 0.006153 | -0.029 ± 0.000693 kcal/mol | –
288.18 K, x1 = 0.006157 | -0.0288 ± 0.000693 kcal/mol | –
293.15 K, x1 = 0.001031 | -0.00462 ± 0.000222 kcal/mol | 999.136 ± 0.033 kg/m3
293.15 K, x1 = 0.00206 | -0.00926 ± 0.000311 kcal/mol | 1000.07 ± 0.033 kg/m3
293.15 K, x1 = 0.003088 | -0.0138 ± 0.000382 kcal/mol | 1001 ± 0.033 kg/m3
293.15 K, x1 = 0.004114 | -0.0182 ± 0.000478 kcal/mol | 1001.9 ± 0.034 kg/m3
293.15 K, x1 = 0.005136 | -0.0227 ± 0.000574 kcal/mol | 1002.82 ± 0.034 kg/m3
293.15 K, x1 = 0.006158 | -0.0272 ± 0.000645 kcal/mol | 1003.73 ± 0.035 kg/m3
298.15 K, x1 = 0.001032 | -0.00443 kcal/mol and -0.00441 kcal/mol | 997.937 ± 0.034 kg/m3 and 997.929 ± 0.034 kg/m3
298.15 K, x1 = 0.002061 | -0.00881 ± 0.000287 kcal/mol | 998.816 ± 0.034 kg/m3
298.15 K, x1 = 0.002062 | -0.00882 ± 0.000287 kcal/mol | 998.823 ± 0.034 kg/m3
298.15 K, x1 = 0.003089 | -0.0132 kcal/mol | 999.697 ± 0.034 kg/m3 and 999.692 ± 0.034 kg/m3
298.15 K, x1 = 0.004113 | -0.0175 ± 0.000454 kcal/mol | 1000.57 ± 0.034 kg/m3
298.15 K, x1 = 0.004114 | -0.0174 ± 0.000454 kcal/mol | 1000.56 ± 0.034 kg/m3
298.15 K, x1 = 0.005137 | -0.0218 kcal/mol | 1001.45 ± 0.035 kg/m3 and 1001.43 ± 0.035 kg/m3
298.15 K, x1 = 0.00616 | -0.0261 kcal/mol | 1002.32 ± 0.035 kg/m3 and 1002.3 ± 0.035 kg/m3
303.15 K, x1 = 0.001032 | -0.00411 ± 0.000217 kcal/mol | 996.49 ± 0.035 kg/m3
303.15 K, x1 = 0.002061 | -0.00821 ± 0.000287 kcal/mol | 997.341 ± 0.035 kg/m3
303.15 K, x1 = 0.003089 | -0.0123 ± 0.000359 kcal/mol | 998.182 ± 0.035 kg/m3
303.15 K, x1 = 0.004114 | -0.0163 ± 0.00043 kcal/mol | 999.012 ± 0.035 kg/m3
303.15 K, x1 = 0.005137 | -0.0203 ± 0.000502 kcal/mol | 999.84 ± 0.035 kg/m3
303.15 K, x1 = 0.006159 | -0.0243 ± 0.000598 kcal/mol | 1000.66 ± 0.035 kg/m3
308.15 K, x1 = 0.001031 | -0.00386 kcal/mol and -0.00387 kcal/mol | 994.828 ± 0.037 kg/m3 and 994.831 ± 0.037 kg/m3
308.15 K, x1 = 0.00206 | -0.00777 kcal/mol and -0.00778 kcal/mol | 995.637 ± 0.037 kg/m3
308.15 K, x1 = 0.003086 | -0.0116 ± 0.000335 kcal/mol | 996.432 ± 0.037 kg/m3
308.15 K, x1 = 0.003088 | -0.0117 ± 0.000335 kcal/mol | 996.443 ± 0.037 kg/m3
308.15 K, x1 = 0.004109 | -0.0155 ± 0.000406 kcal/mol | 997.222 ± 0.037 kg/m3
308.15 K, x1 = 0.004114 | -0.0155 ± 0.00043 kcal/mol | 997.237 ± 0.037 kg/m3
308.15 K, x1 = 0.005131 | -0.0194 ± 0.000502 kcal/mol | 998.031 ± 0.073 kg/m3
308.15 K, x1 = 0.005137 | -0.0194 ± 0.000502 kcal/mol | 998.026 ± 0.073 kg/m3
308.15 K, x1 = 0.006152 | -0.0232 ± 0.000574 kcal/mol | 998.821 ± 0.067 kg/m3
308.15 K, x1 = 0.00616 | -0.0232 ± 0.000574 kcal/mol | 998.816 ± 0.067 kg/m3
313.15 K, x1 = 0.001032 | -0.00352 ± 0.000213 kcal/mol | 992.976 ± 0.038 kg/m3
313.15 K, x1 = 0.002062 | -0.0071 ± 0.000263 kcal/mol | 993.745 ± 0.038 kg/m3
313.15 K, x1 = 0.003091 | -0.0107 ± 0.000335 kcal/mol | 994.499 ± 0.038 kg/m3
313.15 K, x1 = 0.004116 | -0.0142 ± 0.000382 kcal/mol | 995.251 ± 0.038 kg/m3
313.15 K, x1 = 0.005139 | -0.0178 ± 0.000454 kcal/mol | 996.015 ± 0.038 kg/m3
313.15 K, x1 = 0.006161 | -0.0213 ± 0.000526 kcal/mol | 996.763 ± 0.038 kg/m3
318.15 K, x1 = 0.001031 | -0.00324 ± 0.00021 kcal/mol | 990.924 ± 0.04 kg/m3
318.15 K, x1 = 0.001032 | -0.00325 ± 0.00021 kcal/mol | 990.928 ± 0.04 kg/m3
318.15 K, x1 = 0.00206 | -0.00659 ± 0.000263 kcal/mol | 991.645 ± 0.04 kg/m3
318.15 K, x1 = 0.002062 | -0.00661 ± 0.000263 kcal/mol | 991.65 ± 0.04 kg/m3
318.15 K, x1 = 0.003088 | -0.01 ± 0.000311 kcal/mol | 992.362 ± 0.04 kg/m3
318.15 K, x1 = 0.00309 | -0.00996 ± 0.000311 kcal/mol | 992.361 ± 0.04 kg/m3
318.15 K, x1 = 0.004114 | -0.0133 ± 0.000382 kcal/mol | 993.082 ± 0.039 kg/m3
318.15 K, x1 = 0.004116 | -0.0133 ± 0.000382 kcal/mol | 993.069 ± 0.04 kg/m3
318.15 K, x1 = 0.005137 | -0.0167 ± 0.00043 kcal/mol | 993.801 ± 0.04 kg/m3
318.15 K, x1 = 0.00514 | -0.0168 ± 0.000454 kcal/mol | 993.799 ± 0.04 kg/m3
318.15 K, x1 = 0.006159 | -0.0201 ± 0.000502 kcal/mol | 994.517 ± 0.04 kg/m3
318.15 K, x1 = 0.006164 | -0.0202 ± 0.000502 kcal/mol | 994.503 ± 0.04 kg/m3
